Experimental data: patent publication US10357481B2 (MERCK SHARP & DOHME CORP., priority 2015, dated 2019)

Experiments:
[1] = test system: other PDE isoforms; settings: reported in Annual Reports in Medicinal Chemistry 42: 4-5, 2007; cited from earlier work
[2] = reported in Annual Reports in Medicinal Chemistry 42: 4-5, 2007; cited from earlier work
[3] = target: T1, Rhesus PDE2A3 (Macaca mulatta, UniProt B3VTJ2); experiment: PDE2 fluorescence polarization (IMAP FP) inhibition assay, rhesus PDE2A3; type: biochemical, rhesus macaque; settings: Lab B; read-out: Rhesus PDE2 Ki (nM) Lab B
T1 construct: made in house; host or cells: AD293 cells, transiently transfected with pcDNA3.3-TOPO; lysate supernatant used
T1 sequence (B3VTJ2 1-941): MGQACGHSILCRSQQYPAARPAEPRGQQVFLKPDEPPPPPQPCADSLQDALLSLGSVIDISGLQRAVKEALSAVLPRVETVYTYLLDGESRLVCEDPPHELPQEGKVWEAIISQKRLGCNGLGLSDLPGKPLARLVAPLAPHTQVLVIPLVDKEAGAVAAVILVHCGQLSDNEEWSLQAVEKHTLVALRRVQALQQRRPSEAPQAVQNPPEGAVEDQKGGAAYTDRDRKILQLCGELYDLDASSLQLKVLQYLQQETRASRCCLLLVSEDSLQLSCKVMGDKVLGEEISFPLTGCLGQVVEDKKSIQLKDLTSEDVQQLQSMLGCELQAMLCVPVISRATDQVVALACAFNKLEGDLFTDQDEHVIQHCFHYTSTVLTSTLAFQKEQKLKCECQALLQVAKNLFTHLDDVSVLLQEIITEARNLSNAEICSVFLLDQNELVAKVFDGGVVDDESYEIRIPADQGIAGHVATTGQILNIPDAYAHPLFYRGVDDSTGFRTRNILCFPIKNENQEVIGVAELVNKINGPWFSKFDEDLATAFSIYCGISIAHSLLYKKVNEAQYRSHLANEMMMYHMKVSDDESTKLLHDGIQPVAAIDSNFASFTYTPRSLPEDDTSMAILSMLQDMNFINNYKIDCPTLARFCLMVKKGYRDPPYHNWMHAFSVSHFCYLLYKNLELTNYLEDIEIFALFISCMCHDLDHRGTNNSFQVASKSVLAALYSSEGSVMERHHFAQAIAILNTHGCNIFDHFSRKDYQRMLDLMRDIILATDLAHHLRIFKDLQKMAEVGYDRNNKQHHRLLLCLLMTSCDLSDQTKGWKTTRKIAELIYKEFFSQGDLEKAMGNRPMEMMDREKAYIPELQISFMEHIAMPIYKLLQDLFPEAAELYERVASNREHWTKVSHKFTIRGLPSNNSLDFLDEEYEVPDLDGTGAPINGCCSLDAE
Procedure: The activity of the compounds in accordance with the present invention as PDE2 inhibitors may be readily determined using a fluorescence polarization (FP) methodology (Huang, W., et al., J. Biomol Screen, 2002, 7: 215).
In a typical experiment the PDE2 inhibitory activity of the compounds of the present invention was determined in accordance with the following experimental method. Rhesus PDE2A3 was amplified from rhesus macaque brain cDNA (Biochain Institute, Hayward, Calif.) using primers based on human PDE2A sequence (accession NM_002599.3) where the forward primer containing a Kozak consensus was 5′-[…]-3′ and the reverse primer was 5′-[…]-3′. Amplification with Easy-A High-Fidelity PCR cloning enzyme (Stratagene, La Jolla, Calif.) was 95° C. for 2 minutes followed by thirty three cycles of 95° C. for 40 seconds, 52° C. for 30 seconds, and 72° C. for 2 minutes 48 seconds. Final extension was 72° C. for 7 minutes. The PCR product was TA cloned into pcDNA3.3-TOPO (Invitrogen, Carlsbad, Calif.) aaccording to standard protocol. A consensus sequence was developed from multiple clones and then deposited into GenBank (EU812167). AD293 cells (Stratagene, La Jolla, Calif.) with 70-80% confluency were transiently transfected with rhesus PDE2A3/pcDNA3.3-TOPO using Lipofectamine 2000 according to manufacturer specifications (Invitrogen, Carlsbad, Calif.). Cells were harvested 48 hours post-transfection and lysed by sonication (setting 3, 10×5 sec pulses) in a buffer containing 20 mM HEPES pH 7.4, 1 mM EDTA and Complete Protease Inhibitor Cocktail Tablets (Roche, Indianapolis, Ind.). Lysate was collected by centrifugation at 75,000×g for 20 minutes at 4° C. and supernatant utilized for evaluation of PDE2 activity. The fluorescence polarization assay for cyclic nucleotide phosphodiesterases was performed using an IMAP® FP kit supplied by Molecular Devices, Sunnyvale, Calif. (product # R8139). […] Assays were performed at room temperature in 384-well microtiter plates with an incubation volume of 20.2 μL. Solutions of test compounds were prepared in DMSO and serially diluted with DMSO to yield 8 μL of each of 10 solutions differing by 3-fold in concentration, at 32 serial dilutions per plate. […] 0% of inhibition is determined by using DMSO (1% final concentrations).
A Labcyte Echo 555 (Labcyte, Sunnyvale, Calif.) is used to dispense 200 nL from each well of the titration plate to the 384 well assay plate. Ten microliters of a solution of enzyme (1/2000 final dilution from aliquots; sufficient to produce 20% substrate conversion) was added to the assay plate. Next 10 uL of a separate solution of the substrate FAM-labeled cAMP (50 nM final concentration product # R7506 from Molecular Devices) and the activator cGMP (1 uM final concentration), prepared in the assay buffer (10 mM Tris HCl, pH 7.2, 10 mM MgCl2, 0.05% NaN3 0.01% Tween-20, and 1 mM DTT) was added to the assay plate and shaken to mix. The reaction is allowed to proceed at room temperature for 60 minutes. A binding solution is then made from the kit components, comprised of 80% Solution A, 20% Solution B and binding reagent at a volume of 1/600 the total binding solution. The enzymatic reaction is stopped by addition of 60 μL of the binding solution to each well of the assay plates and the plates are sealed and shaken for 30 seconds. The plate was incubated at room temperature for at least one hour prior to determining the fluorescence polarization (FP). The parallel and perpendicular fluorescence of each well of the plate was measured using a Tecan Genios Pro plate reader (Tecan, Switzerland) or Perkin Elmer EnVision™ plate reader (Waltham, Mass.). Fluorescence polarization (mP) was calculated from the parallel (S) and perpendicular (P) fluorescence of each sample well and the analogous values for the median control well, containing only substrate (So and Po), using the following equation: Polarization (mP)=1000*(S/So−P/Po)/(S/So+P/Po).

[4] = target: T2, human PDE2A1 (Homo sapiens, UniProt O00408); experiment: IMAP FP PDE selectivity panel, human PDE2A1; type: biochemical; settings: Human PDE2 Ki (nM) Lab B
T2 construct: GST; purchased BPS Bioscience (San Diego, Calif.) 60020; host or cells: insect cells
Outline: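 IMAP FP read-out, run at room temperature in parallel with PDE1–11: enzyme at 20% substrate conversion, 50 nM FAM-cAMP containing 1000 nM cGMP, Tris pH 7.2/MgCl2/DTT buffer. Compounds as ten 3-fold dilutions. Reaction 60 min, stopped with binding reagent for 1 h before polarization measurement.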

T2 sequence (O00408 1-920 isoform O00408-2): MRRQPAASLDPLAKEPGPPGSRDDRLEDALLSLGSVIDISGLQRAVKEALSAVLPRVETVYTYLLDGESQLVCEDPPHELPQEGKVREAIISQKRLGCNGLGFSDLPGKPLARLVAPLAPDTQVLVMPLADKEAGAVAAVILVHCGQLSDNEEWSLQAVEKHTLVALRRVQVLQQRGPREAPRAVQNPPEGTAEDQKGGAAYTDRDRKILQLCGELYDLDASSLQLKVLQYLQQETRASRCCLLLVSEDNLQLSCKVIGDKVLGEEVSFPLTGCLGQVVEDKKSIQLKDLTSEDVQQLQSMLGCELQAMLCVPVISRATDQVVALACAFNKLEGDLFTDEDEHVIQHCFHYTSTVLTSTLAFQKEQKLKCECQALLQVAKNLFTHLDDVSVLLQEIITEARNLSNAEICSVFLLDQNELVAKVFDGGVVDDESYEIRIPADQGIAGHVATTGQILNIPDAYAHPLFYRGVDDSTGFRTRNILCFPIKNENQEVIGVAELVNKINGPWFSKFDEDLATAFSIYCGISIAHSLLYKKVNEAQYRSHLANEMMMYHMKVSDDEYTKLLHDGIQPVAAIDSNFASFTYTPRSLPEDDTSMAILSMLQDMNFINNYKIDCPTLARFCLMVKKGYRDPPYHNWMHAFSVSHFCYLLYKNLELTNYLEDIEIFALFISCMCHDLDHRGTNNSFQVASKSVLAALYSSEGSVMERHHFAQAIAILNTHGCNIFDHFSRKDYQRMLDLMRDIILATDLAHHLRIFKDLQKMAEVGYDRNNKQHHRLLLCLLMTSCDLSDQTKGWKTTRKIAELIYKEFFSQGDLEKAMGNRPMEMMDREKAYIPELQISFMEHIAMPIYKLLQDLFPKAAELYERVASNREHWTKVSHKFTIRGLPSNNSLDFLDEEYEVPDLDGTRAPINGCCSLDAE

Row | Ki [3] [nM] | Ki [4] [nM] | SMILES | potency at other PDE isoforms [1] | brain penetration [2]
1 |  |  | COc1ccc(Cc2nn3c([C@@H](CCCc4ccccc4)[C@@H](C)O)nc(C)c3c(=O)[nH]2)cc1OC [BAY 60-7550] | significant potency | limited
2 | 5.6 | 4.6 | Cc1cc(NC(c2ccc(S(F)(F)(F)(F)F)cc2)C(C)(C)O)n2ncnc2n1 (single isomer, unassigned) [Example 117, (1R or S)-2-Methyl-1-[(5-methyl[1,2,4]triazolo[1,5-a]pyrimidin-7-yl)amino]-1-[4-(pentafluoro-λ^6-sulfanyl)phenyl] propan-2-ol] |  | 
3 | 61 | 79 | Cc1cc(NC2(c3ccc(C(F)(F)F)cc3)CC2)n2ncnc2n1 [Example 56, 5-Methyl-N-{1-[4-(trifluoromethyl)phenyl]cyclopropyl}[1,2,4]triazolo[1,5-a]pyrimidin-7-amine] |  | 
